Measurements taken from patent US8202514B2, “Bacillus subtilis strain having antagonistic activity for controlling plant diseases” (Korea Research Institute of Chemical Technology, priority 2004, dated 2012).
Read-outs that look alike come from different tables or passages of the source.

What was measured:
[1] = test system: gray mold pathogen, Bouytis cinerea; format: in vivo
[2] = test system: powdery mildew pathogen, Sphaerotheca fidigenea; assay: In vivo control of cucumber powdery mildew (natural infestation in greenhouse); conditions: for Control value (%) The 1st Exp. cucumber powdery mildew: 1st experiment; for Control value (%) The 2nd Exp. cucumber powdery mildew: 2nd experiment
Procedure: The culture solution was diluted with distilled water at a ratio of 1:10, 1:25, 1:50, 1:100 and 1:200. Each diluent was mixed with 250 μg/ml of Tween 20, and sprayed to leaves of the 7th leaf stage of cucumbers.
Topseed (Greenbiotech Co., Ltd.) known as a microbial fungicide for controlling powdery mildew was diluted with distilled water at a ratio of 1:10, 1:25, 1:50, 1:100 and 1:200, and each diluent and flusilazole (Dongbu Hannong Chemical Co., Ltd.) as a positive control were sprayed to cucumber plants to prepare a comparative group. The cucumbers treated with Tween 20 solution alone were employed as a control group.
1 week after spraying, each diluent of the culture solution and comparative sample was sprayed to the target cucumbers second time. 1 week after further spraying, effect on controlling powdery mildew was assessed according to the same method as described in Example 3. The cucumbers were allowed to be infested naturally from a resident powdery mildew pathogen, Sphaerotheca fidigenea in a greenhouse.

[3] = test system: powdery mildew pathogen, Blumeria graminis f. sp. hordei; assay: In vivo control of barley powdery mildew on barley seedlings
[4] = test system: late blight pathogen, Phytophthora infestans; format: in vivo
[5] = test system: anthracnose pathogen, Colletotrichum orbiculare; format: in vivo

## CN(C)S(=O)(=O)N(SC(F)(Cl)Cl)c1ccccc1 [Dichlofluanid, dichlofluanid]
[1]; 40 μg/ml
  Control value (%) Tomato gray mold: 86%
[1]; 80 μg/ml
  Control value (%) Tomato gray mold: 97%

## C[Si](Cn1cncn1)(c1ccc(F)cc1)c1ccc(F)cc1 [Flusilazole, flusilazole]
[2]; 10 μg/ml
  Control value (%) The 1st Exp. cucumber powdery mildew: 97%
  Control value (%) The 2nd Exp. cucumber powdery mildew: 97%
[2]; 30 μg/ml
  Control value (%) The 1st Exp. cucumber powdery mildew: 99%
  Control value (%) The 2nd Exp. cucumber powdery mildew: 99%

## CCCCNC(=O)n1c(NC(=O)OC)nc2ccccc21 [Benomyl, benomyl]
[3]; 1 μg/ml
  Control value (%) Barley powdery mildew: 52%
[3]; 100 μg/ml
  Control value (%) Barley powdery mildew: 100%

## N#Cc1c(Cl)c(Cl)c(Cl)c(C#N)c1Cl [Chlrothalonil, chlrothalonil]
[4]; 50 μg/ml
  Control value (%) Tomato late blight: 89%
[4]; 100 μg/ml
  Control value (%) Tomato late blight: 100%

## N#Cc1sc2c(=O)c3ccccc3c(=O)c=2sc1C#N [Dithianon, dithianon]
[5]; 10 μg/ml
  Control value (%) Cucumber anthracnose: 80%
[5]; 100 μg/ml
  Control value (%) Cucumber anthracnose: 100%
